Here are results for 22 molecules from patent publication US20220162191A1, “SMALL MOLECULE MODULATORS OF IL-17” (LEO PHARMA A/S, priority 2019, published 2022).

Structures are written as SMILES.

In the test the target is T1, human IL-17AA (Homo sapiens, UniProt Q16552).
T1 construct: host or cells: HEK (human embryonic kidney) cells
T1 sequence (Q16552 24-155) 1: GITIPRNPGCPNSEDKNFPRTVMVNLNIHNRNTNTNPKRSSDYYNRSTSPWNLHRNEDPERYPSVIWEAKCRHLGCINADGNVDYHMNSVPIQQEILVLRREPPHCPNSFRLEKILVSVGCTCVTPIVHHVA
T1 sequence (Q16552 24-155) 2: T1 sequence (Q16552 24-155) 1
Kind of test: IL-8 release assay in human epithelial keratinocytes adult (HEKa). The following applies: 3 ng/ml human IL-17AA + 10 ng/ml human TNFalpha, 68-72 h, IL-8 by HTRF, read-out: Rel EC50 L-8 release assay. It is filed as cell-based. Put shortly: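 Adult human keratinocytes in Epilife with HKGS minus hydrocortisone, treated with compound then stimulated with final 3 ng/ml HEK-derived human IL-17AA plus 10 ng/ml TNF-alpha for 68–72 h at 37 °C; TNF-alpha alone defines 100% inhibition. Secreted IL-8 by HTRF; relative IC50 and Emax from four-parameter fits.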
As a reminder, the EC50 is the midpoint of the concentration-response curve. As to `Cn1cnnc1-c1ccc(NC(=O)C(Cc2cc(-c3ccc(O)c(C(=O)N4CCC4)c3)ccc2Cl)NC(=O)c2ccnn2C)cc1` (stereo not shown) [Example 172, N-[1-[[5-[3-(azetidine-1-carbonyl)-4-hydroxy-phenyl]-2-chloro-phenyl]methyl]-2-[4-(4-methyl-1,2,4-triazol-3-yl)anilino]-2-oxo-ethyl]-2-methyl-pyrazole-3-carboxamide], the EC50 was more than 1000 nM.

`CC(C)n1cc(-c2ccc(Cl)c(CC(NC(=O)c3ccnn3C)C(=O)Nc3ccc(-c4nncn4C)cc3)c2)cc(C(F)(F)F)c1=O` (stereo not shown) [Example 163, N-[1-[[2-chloro-5-[1-isopropyl-6-oxo-5-(trifluoromethyl)-3-pyridyl]phenyl]methyl]-2-[4-(4-methyl-1,2,4-triazol-3-yl)anilino]-2-oxo-ethyl]-2-methyl-pyrazole-3-carboxamide]: the 50% effective concentration (EC50) was more than 1000 nM.

In the case of `Cn1cncc1-c1ccc(NC(=O)[C@H](Cc2cc(-c3cccc([C@@H]4COCCN4)c3)ccc2Cl)NC(=O)c2ccnn2C)cc1` [Example 216, N-[(1S)-1-[[2-chloro-5-[3-[(3R)-morpholin-3-yl]phenyl]phenyl]methyl]-2-[4-(3-methylimidazol-4-yl)anilino]-2-oxo-ethyl]-2-methyl-pyrazole-3-carboxamide], the concentration giving a half-maximal response (EC50) lay in the range of 100 to 1000 nM.

As for `Cc1nccn1-c1ccc(NC(=O)[C@H](Cc2cc(-c3ccc(=O)n(C(C)C)c3)ccc2Cl)NC(=O)C2(F)CC2)cc1` [Example 114, N-[(1S)-1-[[2-chloro-5-(1-isopropyl-6-oxo-3-pyridyl)phenyl]methyl]-2-[4-(2-methylimidazol-1-yl)anilino]-2-oxo-ethyl]-1-fluoro-cyclopropanecarboxamide], the 50% effective concentration (EC50) fell in the range of 100 to 1000 nM.

With `Cc1ncn(C)c1-c1ccc(NC(=O)[C@@H](NC(=O)C2(F)CC2)[C@@H]2CCCc3ccc(-c4ccnc(N5C[C@@H]6C[C@H]5CN6)c4)cc32)cc1` [Example 40, N-[(1S)-1-[(1R)-7-[2-[(1S,4S)-2,5-diazabicyclo[2.2.1]heptan-2-yl]-4-pyridyl]tetralin-1-yl]-2-[4-(3,5-dimethylimidazol-4-yl)anilino]-2-oxo-ethyl]-1-fluoro-cyclopropanecarboxamide], the concentration giving a half-maximal response (EC50) was less than 100 nM.

For the molecule `Cc1cc(-c2ccc3c(c2)[C@H]([C@H](NC(=O)C2(F)CC2)C(=O)Nc2ccc(-c4c(C)n[nH]c4C)cc2)CC3)nc(N2C[C@@H]3C[C@H]2CO3)n1` [Example 370, N-[(1S)-2-[4-(3,5-dimethyl-1H-pyrazol-4-yl)anilino]-1-[(1R)-6-[6-methyl-2-[(1S,4S)-2-oxa-5-azabicyclo[2.2.1]heptan-5-yl]pyrimidin-4-yl]indan-1-yl]-2-oxo-ethyl]-1-fluoro-cyclopropanecarboxamide], the concentration for a half-maximal effect (EC50) is less than 100 nM.

For `Cc1n[nH]c(C)c1-c1ccc(NC(=O)[C@H](Cc2cc(-c3ccnn3C3CCC3)ccc2Cl)NC(=O)C2(F)CC2)cc1` [Example 226, N-[(1S)-1-[[2-chloro-5-(2-cyclobutylpyrazol-3-yl)phenyl]methyl]-2-[4-(3,5-dimethyl-1H-pyrazol-4-yl)anilino]-2-oxo-ethyl]-1-fluoro-cyclopropanecarboxamide], the concentration for a half-maximal effect (EC50) was in the range of 100 to 1000 nM.

For `Cc1nocc1C(=O)N[C@@H](Cc1cc(-c2ccnc(C(=O)C3CC3)c2)ccc1Cl)C(=O)Nc1ccc(-c2nncn2C)cc1` [Example 85, N-[(1S)-1-[[2-chloro-5-[2-(cyclopropanecarbonyl)-4-pyridyl]phenyl]methyl]-2-[4-(4-methyl-1,2,4-triazol-3-yl)anilino]-2-oxo-ethyl]-3-methyl-isoxazole-4-carboxamide], the EC50 is more than 1000 nM.

In the case of `Cc1n[nH]cc1-c1ccc(NC(=O)C(NC(=O)OC2CC2)C(c2ccccc2)c2cccc(-c3ccc(=O)n(C(C)C)c3)c2)cc1` (single isomer, unassigned; diastereomer 1) [Example 242, cyclopropyl N-[1-[[3-(1-isopropyl-6-oxo-3-pyridyl)phenyl]-phenyl-methyl]-2-[4-(3-methyl-1H-pyrazol-4-yl)anilino]-2-oxo-ethyl]carbamate (Diastereomer 1)], the half-maximal effective concentration (EC50) is more than 1000 nM.

In the case of `Cn1cncc1-c1ccc(NC(=O)C(Cc2cc(-c3ccnc(N4CCC4)c3)ccc2Cl)NC(=O)c2ccnn2C)cc1` (stereo not shown) [Example 149, N-[1-[[5-[2-(azetidin-1-yl)-4-pyridyl]-2-chloro-phenyl]methyl]-2-[4-(3-methylimidazol-4-yl)anilino]-2-oxo-ethyl]-2-methyl-pyrazole-3-carboxamide], the EC50 was in the range of 100 to 1000 nM.

Consider `Cc1ncn(C)c1-c1ccc(NC(=O)[C@H](Cc2cc(-c3ccc(=O)n(C(C)C)c3)ccc2Cl)NC(=O)c2ccnn2C)cc1` [Example 143, N-[(1S)-1-[[2-chloro-5-(1-isopropyl-6-oxo-3-pyridyl)phenyl]methyl]-2-[4-(3,5-dimethylimidazol-4-yl)anilino]-2-oxo-ethyl]-2-methyl-pyrazole-3-carboxamide], for which the EC50 is 100 to 1000 nM.

In the case of `Cc1cnn(C)c1-c1ccc(NC(=O)[C@H](Cc2cc(-c3ccc(=O)n(C(C)C)c3)ccc2Cl)NC(=O)C2CCC2)cc1` [Example 325, N-[(1S)-1-[[2-chloro-5-(1-isopropyl-6-oxo-3-pyridyl)phenyl]methyl]-2-[4-(2,4-dimethylpyrazol-3-yl)anilino]-2-oxo-ethyl]cyclobutanecarboxamide], the concentration giving a half-maximal response (EC50) is more than 1000 nM.

Turning to `CC(C)n1cc(-c2ccc(Cl)c(CC(NC(=O)C(F)(F)c3ccccc3)C(=O)Nc3ccc(-c4nncn4C)cc3)c2)ccc1=O` (stereo not shown) [Example 97, 3-[2-chloro-5-(1-isopropyl-6-oxo-3-pyridyl)phenyl]-2-[(2,2-difluoro-2-phenyl-acetyl)amino]-N-[4-(4-methyl-1,2,4-triazol-3-yl)phenyl]propanamide], the concentration giving a half-maximal response (EC50) is more than 1000 nM.

Turning to `Cc1nocc1C(=O)NC(Cc1cc(-c2ccc(=O)n(C(C)C)c2)ccc1Cl)C(=O)Nc1ccc(-c2cn[nH]c2)cc1` (stereo not shown) [Example 80, N-[1-[[2-chloro-5-(1-isopropyl-6-oxo-3-pyridyl)phenyl]methyl]-2-oxo-2-[4-(1H-pyrazol-4-yl)anilino]ethyl]-3-methyl-isoxazole-4-carboxamide], the EC50 lay in the range of 100 to 1000 nM.

For `Cc1ncn(C)c1-c1ccc(NC(=O)[C@@H](NC(=O)c2ccnn2C)[C@@H]2CCCc3ccc(-c4cccc(C(C)(C)N)c4)cc32)cc1` [Example 50, N-[(1S)-1-[(1R)-7-[3-(1-amino-1-methyl-ethyl)phenyl]tetralin-1-yl]-2-[4-(3,5-dimethylimidazol-4-yl)anilino]-2-oxo-ethyl]-2-methyl-pyrazole-3-carboxamide], the concentration giving a half-maximal response (EC50) lay in the range of 100 to 1000 nM.

In the case of `Cc1nocc1C(=O)N[C@@H](Cc1cc(-c2ccnc(C(C)(C)C)c2)ccc1Cl)C(=O)Nc1ccc(-c2nncn2C)cc1` [Example 128, N-[(1S)-1-[[5-(2-tert-butyl-4-pyridyl)-2-chloro-phenyl]methyl]-2-[4-(4-methyl-1,2,4-triazol-3-yl)anilino]-2-oxo-ethyl]-3-methyl-isoxazole-4-carboxamide], the EC50 lay within 100 to 1000 nM.

Take `Cc1cnn(C)c1-c1ccc(NC(=O)[C@@H](NC(=O)C2(F)CC2)[C@@H]2CCCc3ccc(-c4ccnc(N5C[C@@H]6C[C@H]5CO6)c4)cc32)cc1` [Example 398, N-[(1S)-2-[4-(2,4-dimethylpyrazol-3-yl)anilino]-1-[(1R)-7-[2-[(1S,4S)-2-oxa-5-azabicyclo[2.2.1]heptan-5-yl]-4-pyridyl]tetralin-1-yl]-2-oxo-ethyl]-1-fluoro-cyclopropanecarboxamide]: the half-maximal effective concentration (EC50) was less than 100 nM.

For the molecule `Cn1cnnc1-c1ccc(NC(=O)C(Cc2cc(-c3ccc(O)c(CN4CCC4)c3)ccc2Cl)NC(=O)c2ccnn2C)cc1` (stereo not shown) [Example 168, N-[1-[[5-[3-(azetidin-1-ylmethyl)-4-hydroxy-phenyl]-2-chloro-phenyl]methyl]-2-[4-(4-methyl-1,2,4-triazol-3-yl)anilino]-2-oxo-ethyl]-2-methyl-pyrazole-3-carboxamide], the EC50 lay in the range of 100 to 1000 nM.

On to `Cc1ncn(C)c1-c1ccc(NC(=O)[C@@H](NC(=O)C2(F)CC2)C(C)c2cc(-c3ccc(=O)n(C(C)C)c3)ccc2Cl)cc1` (stereo partly drawn) [Example 52, N-[(1S)-2-[2-chloro-5-(1-isopropyl-6-oxo-3-pyridyl)phenyl]-1-[[4-(3,5-dimethylimidazol-4-yl)phenyl]carbamoyl]propyl]-1-fluoro-cyclopropanecarboxamide], for which the concentration giving a half-maximal response (EC50) is more than 1000 nM.

For `Cc1n[nH]c(C)c1-c1ccc(NC(=O)[C@@H](NC(=O)C2(F)CC2)[C@H](C)c2cccc(-c3ccnc(N4C[C@@H]5C[C@H]4CO5)c3)c2)cc1` [Example 341, N-[(1S,2R)-1-[[4-(3,5-dimethyl-1H-pyrazol-4-yl)phenyl]carbamoyl]-2-[3-[2-[(1S,4S)-2-oxa-5-azabicyclo[2.2.1]heptan-5-yl]-4-pyridyl]phenyl]propyl]-1-fluoro-cyclopropanecarboxamide], the concentration giving a half-maximal response (EC50) was less than 100 nM.

Turning to `Cc1cnn(C)c1-c1ccc(NC(=O)[C@@H](NC(=O)C2(F)CC2)[C@@H]2CCc3ccc(-c4cc(N5C[C@@H]6C[C@H]5CO6)cnn4)cc32)cc1` [Example 383, N-[(1S)-2-[4-(2,4-dimethylpyrazol-3-yl)anilino]-1-[(1R)-6-[5-[(1S,4S)-2-oxa-5-azabicyclo[2.2.1]heptan-5-yl]pyridazin-3-yl]indan-1-yl]-2-oxo-ethyl]-1-fluoro-cyclopropanecarboxamide], the 50% effective concentration (EC50) was more than 1000 nM.

For `Cc1cnn(C)c1-c1ccc(NC(=O)[C@H](Cc2cc(-c3ccc(=O)n(C(C)C)c3)ccc2Cl)NC(=O)c2ccon2)cc1` [Example 337, N-[(1S)-1-[[2-chloro-5-(1-isopropyl-6-oxo-3-pyridyl)phenyl]methyl]-2-[4-(2,4-dimethylpyrazol-3-yl)anilino]-2-oxo-ethyl]isoxazole-3-carboxamide], the EC50 was 100 to 1000 nM.
